Results taken from patent US8993617B2, “Ire1alpha endonuclease specific inhibitor with cytotoxic activity” (The Board of Trustees of the Leland Stanford Junior …, priority 2010, dated 2015).

Key:
XBP1 mRNA splicing = test: endogenous XBP1 mRNA splicing by RT-PCR in ER-stressed RPMI8226 cells; assay type: cell-based, human
Method: FIG. 1B is a gel electrophoresis image showing STF-083010 inhibiting endogenous XBP1 mRNA splicing. RPMI8226 cells were treated with 300 μM thapsigargin (Th), 60 μM STF-083010 or both for indicated amount of time and the relative XBP1 splicing was determined by RT-PCR. Solid arrow indicates the unspliced and broken arrow indicates the spliced form.
(§1) To confirm the molecular target, we analyzed the effect of STF-083010 on endogenous XBP1 mRNA splicing levels in control and ER-stressed RPMI8226 human MM cells (FIG. 1B). […] To establish that this effect was due to a direct interaction between STF-083010 and Ire1α, we analyzed Ire1α enzymatic activity in a cell free system. STF-083010 blocked Ire1α's endonuclease activity (FIG. 1E), without affecting its kinase activity (FIG. 1F).
(§2) Human specimen isolation and assays. Bone marrow aspirates were obtained from MM patients after obtaining informed consent according to institutional guidelines. CD138+ plasma cells were selected by positive magnetic bead selection (StemCell Technologies, Vancouver, Canada) either after isolation of nucleated cells (patients 1-4) or directly (patients 5-8). Peripheral blood cells were obtained by Ficoll-Hypaque density centrifugation from separate control patients. Cell culture, reporter assays, RT-PCR, Western blotting, and bioluminescent imaging.

CD3 positive T cells = test: ex vivo cytotoxicity in peripheral blood T cells (7-aminoactinomycin D); assay type: cell-based, human; conditions: average of UPN 9-15
Method: (§3) FIG. 2E is a line graph showing that STF-083010 is preferentially cytotoxic against human MM cells. MM cells were obtained by CD138+ selection from bone marrow samples from MM patients; lymphocytes were obtained by Ficoll density-gradient centrifugation of peripheral blood samples from control patients, followed by staining with anti CD3, anti CD19 and anti CD56 monoclonal antibodies to differentiate between T-, B- and NK cells. Cells were cultured with the indicated concentrations of STF-083010 for 24 h and cell viability was measured by flow cytometric analysis of Annexin V/Propidium Iodide (MM) or 7-aminoactinomycin D (peripheral blood lymphocytes) stained samples.
(§4) In order to determine anti-myeloma activity of STF-083010, first we treated a panel of MM cell lines with increasing concentrations of the compound in vitro and measured viability by trypan blue exclusion (FIG. 2C). […] Next, we treated RPMI8226 human MM cells grown as tumor xenografts in NSG mice. […] Additionally, we treated fresh CD138+ cells isolated from MM patients and compared the ex vivo toxicity to that of cells from 7 control patients (FIG. 2E, Tables 1,2).
(§5) Human specimen isolation and assays. Bone marrow aspirates were obtained from MM patients after obtaining informed consent according to institutional guidelines. […]

hIre1α [1] = biological target: T1, hIre1α (Homo sapiens, UniProt O75460); test: cell free Ire1α RNase (endonuclease) activity, HAC1 mRNA cleavage; assay type: biochemical; conditions: hIre1 with 32P HAC1 508 nt transcript, 30 min, 1-100 μM; read-out: half-maximal inhibition of HAC1 mRNA processing
T1 construct: hIre1α protein containing both Ire1 cytoplasmic kinase and RNase domains; made in house
T1 sequence (O75460 465-977 limits assumed): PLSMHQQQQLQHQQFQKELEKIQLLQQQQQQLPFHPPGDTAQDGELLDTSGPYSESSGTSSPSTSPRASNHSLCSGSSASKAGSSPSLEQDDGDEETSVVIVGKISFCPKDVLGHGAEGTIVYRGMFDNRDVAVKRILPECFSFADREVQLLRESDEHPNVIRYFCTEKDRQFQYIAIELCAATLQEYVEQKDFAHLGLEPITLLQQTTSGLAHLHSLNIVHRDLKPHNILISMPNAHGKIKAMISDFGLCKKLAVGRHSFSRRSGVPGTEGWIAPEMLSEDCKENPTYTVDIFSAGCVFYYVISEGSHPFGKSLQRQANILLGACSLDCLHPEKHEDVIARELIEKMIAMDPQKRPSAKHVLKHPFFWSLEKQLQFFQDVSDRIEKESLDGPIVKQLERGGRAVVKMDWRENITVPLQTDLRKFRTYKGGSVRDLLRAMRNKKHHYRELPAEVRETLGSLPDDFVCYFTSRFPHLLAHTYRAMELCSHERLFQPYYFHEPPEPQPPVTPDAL
Method: FIG. 1E is a gel electrophoresis image and a line graph showing the STF-083010 effect on cell free Ire1α RNase (endonuclease) activity. […] HAC1 mRNA cleavage reaction was analyzed by separation of products on denaturing polyacrylamide gels, followed by autoradiography. The line graph is the quantitation of HAC1 mRNA processing showing half-maximal inhibition at approximately 25 μM. Error bars represent s.e.m. of 3 independent experiments.
Chemical library screening. […] Autophosphorylation activity was determined with the addition of ^32P-γATP. Endonuclease activity was determined with the addition of radio-labeled HAC1 508 nt RNA substrate synthesized in vitro using α^32P-UTP (Nock S, Gonzalez T, Sidrauski C, Niwa M, Walter P. Purification and activity assays of the catalytic domains of the kinase/endoribonuclease Ire1p from Saccharomyces cerevisiae. Methods Enzymol. 2001; 342:3-10). […] Kinase activity and RNAse cleavage products were quantitated by PAGE and ^32P-γATP or ^32P-UTP autoradiography respectively.

[2] = tested on: CD138+ multiple myeloma cells; test: ex vivo cytotoxicity in CD138+ cells from MM patients (Annexin V/Propidium Iodide); assay type: cell-based, human
Description: MM cells were obtained by CD138+ selection from bone marrow samples from MM patients; lymphocytes were obtained by Ficoll density-gradient centrifugation of peripheral blood samples from control patients, followed by staining with anti CD3, anti CD19 and anti CD56 monoclonal antibodies to differentiate between T-, B- and NK cells.
Next, we treated RPMI8226 human MM cells grown as tumor xenografts in NSG mice. […] Additionally, we treated fresh CD138+ cells isolated from MM patients and compared the ex vivo toxicity to that of cells from 7 control patients (FIG. 2E, Tables 1,2).
as §2

XBP1-luciferase reporter = test: XBP1-luciferase bioluminescence in transgenic XBP1-luc mice; assay type: in vivo; conditions: i.p.
Method: FIG. 2A is a bar graph showing that STF-083010 blocks bortezomib-induced XBP1 activity in vivo. Transgenic XBP1-luc mice were injected i.p. with drug vehicle (16% chremophor), 1 mg/kg bortezomib, or 1 mg/kg bortezomib and 60 mg/kg STF-083010 and bioluminescence was measured after 24 h. […] Error bars show s.e.m. of at least 4 animals.
FIG. 2B is a set of images of representative mice before and after treatment.
as §2

sXBP1 protein = sXBP1 protein production by immunoblotting in MM cell lines; assay type: cell-based, human; conditions: 300 μM Th and 60 μM STF-083010
Method: FIG. 1C is set of a gel electrophoresis images showing STF-083010 inhibiting the production of sXBP1 protein but not the auto-phosphorylation of Ire1α. The left panel indicates MM cell lines that were treated for the indicated times with 300 μM Th and 60 μM STF-083010 and sXBP1 protein was detected by immunoblotting.
as §1, §2

CD19 positive B cells = test: ex vivo cytotoxicity in peripheral blood B cells (7-aminoactinomycin D); assay type: cell-based, human; conditions: average of UPN 9-15
Method: as §3, §4, §5

CD56 positive NK cells = test: ex vivo cytotoxicity in peripheral blood NK cells (7-aminoactinomycin D); assay type: cell-based, human; conditions: average of UPN 9-15
Method: as §3, §4, §5

Ire1α = biological target: T2, Ire1α (Homo sapiens, UniProt O75460); test: Ire1α auto-phosphorylation by immunoblot in RPMI8226 cells; assay type: cell-based; conditions: 300 μM Th and 60 μM STF-083010
T2 construct: RPMI8226 cells were treated with 300 μM Th and 60 μM STF-083010; endogenous in cells; host or cells: RPMI8226 human multiple myeloma cells
T2 sequence (O75460 19-977): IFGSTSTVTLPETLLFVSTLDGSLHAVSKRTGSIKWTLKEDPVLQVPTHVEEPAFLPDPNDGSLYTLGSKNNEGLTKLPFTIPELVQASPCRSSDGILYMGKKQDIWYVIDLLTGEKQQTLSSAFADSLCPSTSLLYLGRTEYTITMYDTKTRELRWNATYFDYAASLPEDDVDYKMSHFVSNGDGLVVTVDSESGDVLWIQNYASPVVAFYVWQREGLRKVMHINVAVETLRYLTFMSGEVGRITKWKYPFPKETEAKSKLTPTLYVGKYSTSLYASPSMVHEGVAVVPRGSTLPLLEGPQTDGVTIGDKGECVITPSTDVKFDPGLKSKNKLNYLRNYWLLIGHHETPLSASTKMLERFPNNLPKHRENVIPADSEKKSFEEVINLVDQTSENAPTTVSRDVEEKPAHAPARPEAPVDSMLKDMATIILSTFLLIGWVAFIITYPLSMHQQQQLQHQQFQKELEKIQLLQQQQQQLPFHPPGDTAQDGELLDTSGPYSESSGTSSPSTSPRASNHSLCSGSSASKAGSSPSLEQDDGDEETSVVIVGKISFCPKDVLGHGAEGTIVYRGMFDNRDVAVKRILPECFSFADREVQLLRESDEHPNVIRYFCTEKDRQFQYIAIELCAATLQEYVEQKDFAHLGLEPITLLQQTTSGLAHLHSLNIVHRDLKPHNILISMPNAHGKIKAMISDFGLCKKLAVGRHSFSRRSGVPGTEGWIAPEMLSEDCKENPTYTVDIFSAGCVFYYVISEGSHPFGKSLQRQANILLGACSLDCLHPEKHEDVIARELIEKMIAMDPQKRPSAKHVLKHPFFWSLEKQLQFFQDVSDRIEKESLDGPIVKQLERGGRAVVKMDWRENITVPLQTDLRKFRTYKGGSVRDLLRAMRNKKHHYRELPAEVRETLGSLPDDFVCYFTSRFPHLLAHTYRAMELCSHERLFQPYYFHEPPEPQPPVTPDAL
Method: FIG. 1D is a set of gel electrophoresis images in which RPMI8226 cells were treated with 300 μM Th and 60 μM STF-083010 for the indicated times and the levels of phosphorylated and total Ire1α were detected using specific antibodies.

hIre1α [3] = biological target: T1, hIre1α; test: cell free Ire1α kinase activity (autophosphorylation, 32P-γATP); assay type: biochemical; conditions: 0-100 μM, 32P-γATP autophosphorylation
Method: FIG. 1F is a graph and gel that show the effect of STF-083010 on cell free Ire1α kinase activity, Upper: hIre1α was incubated with 32P-γATP and increasing concentrations (0-100 μM) of STF-083010. Ire1α autophosphorylation was analyzed by SDS-PAGE, followed by autoradiography to determine the amount of 32P incorporation (32P-hIRE). […] Error bars represent s.e.m. of 3 independent experiments.
Chemical library screening. The screen was performed in the Stanford High-Throughput Bioscience Center (HTBC). hIre1α protein containing both Ire1 cytoplasmic kinase and RNase domains was expressed and purified from baculovirus as described (Niwa M, Sidrauski C, Kaufman R J, Walter P. A role for presenilin-1 in nuclear accumulation of Ire1 fragments and induction of the mammalian unfolded protein response. Cell. 1999; 99:691-702). Autophosphorylation activity was determined with the addition of ^32P-γATP. Endonuclease activity was determined with the addition of radio-labeled HAC1 508 nt RNA substrate synthesized in vitro using α^32P-UTP (Nock S, Gonzalez T, Sidrauski C, Niwa M, Walter P. Purification and activity assays of the catalytic domains of the kinase/endoribonuclease Ire1p from Saccharomyces cerevisiae. Methods Enzymol. 2001; 342:3-10). […] Kinase activity and RNAse cleavage products were quantitated by PAGE and ^32P-γATP or ^32P-UTP autoradiography respectively.

[4] = tested on: RPMI8226, MM.1S and MM.1R MM cells; test: in vitro cytotoxicity in MM cell lines, trypan blue exclusion; assay type: cell-based, human; conditions: 0, 30 or 60 μM, viable cell number measured daily
Method: FIG. 2C is a set of line graphs showing in vitro cytotoxicity of STF-083010. RPMI8226, MM.1S and MM.1R MM cells that were treated with 0, 30 or 60 μM of STF-083010 and viable cell number was measured daily by the trypan blue exclusion method.
as §4

[5] = histology (H&E) of normal mouse tissues after treatment; assay type: in vivo; conditions: 60 mg/kg×1 and 30 mg/kg×2
Method: FIG. 3 is a set of images of the H&E stained sections of normal mouse tissues and RPMI8226 xenograft tumors treated with drug vehicle (16% chremophor in saline) or 30 mg/kg STF-083010 weekly for two weeks.

RPMI8226 MM cells = test: RPMI8226 subcutaneous tumor xenografts in NOD/SCID/IL2Rγ null mice; assay type: in vivo; conditions: intraperitoneal, 30 mg/kg once weekly for 2 weeks (d1, d8)
Method: FIG. 2D is a line graph showing the antitumor activity of STF-083010 in vivo. RPMI8226 MM cells were established as subcutaneous tumor xenografts in NOD/SCID/IL2Rγ null mice. When tumors reached an average volume of 150 mm3, 2 groups of 5 mice each were treated with 30 mg/kg STF-083010 or drug vehicle once weekly for 2 weeks.
as §4

O=S(=O)(/N=C/c1c(O)ccc2ccccc12)c1cccs1 [STF-083010, (E)-N-((2-hydroxynaphthalen-1-yl)methylene)thiophene-2-sulfonamide]
XBP1 mRNA splicing induced by thapsigargin (XBP1 mRNA splicing; RPMI8226 cells, 300 μM thapsigargin (Th), 60 μM STF-083010): almost completely blocked
XBP1 splicing activated by other types of ER stress (XBP1 mRNA splicing; tunicamycin treatment, glucose deprivation or severe hypoxia (data not shown)): inhibited XBP1 splicing
LD50 (24 h) CD3 positive, AVERAGE (CD3 positive T cells): 136.6 µM
IC50 (hIre1α [1]): ~25 µM
LD50 24 h in multiple myeloma cells, AVERAGE ([2]; average of UPN 1-8): 27.8 µM
cytotoxicity to CD138+ cells compared to B (CD19+), T (CD3+), and NK (CD56+) cells ([2]; ex vivo, 24 h): selectively cytotoxic
XBP1-luciferase bioluminescent signal when injected with bortezomib (XBP1-luciferase reporter; 1 mg/kg bortezomib and 60 mg/kg STF-083010, 24 h): no increase in bioluminescent signal
production of active sXBP1 protein (sXBP1 protein): inhibited production of active sXBP1 protein
LD50 (24 h) CD19 positive, AVERAGE (CD19 positive B cells): 73.1 µM
LD50 (24 h) CD56 positive, AVERAGE (CD56 positive NK cells): 71.3 µM
Ire1α kinase activity, immunoblot of autophosphorylated Ire1α (Ire1α): did not inhibit
Ire1α kinase activity during co-incubation (hIre1α [3]): no significant change
viability of MM cell lines [4]: cytostatic and cytotoxic activity in a dose- and time-dependent manner
histologic effects after treatment [5]: did not find any histologic effects
growth of tumor xenografts (RPMI8226 MM cells): significantly inhibited

CC(C)C[C@H](NC(=O)[C@H](Cc1ccccc1)NC(=O)c1cnccn1)B(O)O [bortezomib, reference compound]
XBP1-luciferase bioluminescent activity after bortezomib alone (XBP1-luciferase reporter; 1 mg/kg bortezomib, 24 h): commensurate increase

C/C=C(/C)C(=O)O[C@H]1C(C)=C2[C@H]([C@@H]1OC(=O)CCCCCCC)[C@@](C)(OC(C)=O)C[C@H](OC(=O)CCC)[C@@]1(O)[C@H]2OC(=O)[C@@]1(C)O [thapsigargin, reference compound]
XBP1 splicing on incubation with thapsigargin alone (XBP1 mRNA splicing; RPMI8226 cells, 300 μM thapsigargin): resulted in XBP1 splicing
